Data taken from publication PMC13080969 (Journal of Chemical Information and Modeling, 2026).
Like-named read-outs stand apart in the source and are kept apart here.

How the values were obtained:
[1] = system: intracellular L. infantum amastigotes; design: method as in PMID 39334981; conditions: clinical comparators, cited from earlier work; for IC50: read-out: IC50 against intracellular L. infantum amastigotes
[2] = design: method as in PMID 39334981; conditions: clinical comparators; read-out: CC50 (cytotoxicity); cited from earlier work
[3] = system: L. infantum promastigotes; assay: Promastigote assay (resazurin viability); assay type: cell-based, Leishmania infantum; conditions: for IC50: Leishmania infantum, 48 h, read-out: L. infantum IC50 Promastigotes; for Selectivity index Promastigotes: SI = CC50/IC50
Description: (§1) L. infantum promastigotes were grown at 26 °C in Schneider medium (Sigma), supplemented with 20% heat-inactivated fetal bovine serum (Sigma) and 1% penicillin-streptomycin (Sigma). To ensure maintenance of virulence, the parasites were serially passed through BALB/c mice. THP-1 cells were cultured in RPMI-1640 medium (Sigma-Aldrich), supplemented with 10% heat-inactivated SFB (Sigma) and 1% penicillin-streptomycin (Life Technologies), maintained at a density of 10^6 cells/mL, and incubated at 37 °C in a 5% CO2 atmosphere. For differentiation, THP-1 cells were seeded in 96-well culture plates at a concentration of 1 × 10^4 cells/well and treated with 100 ng/mL of […] (PMA, Sigma-Aldrich) and incubated for 48 h at 37 °C and 5% CO2. Cell viability was previously assessed using the Trypan Blue exclusion method. […] Differentiated THP-1 cells were washed with nonsupplemented RPMI-1640 and given fresh medium without PMA. The cells were rested for 24 h before further treatment.
To evaluate the effect of prioritized compounds on parasite viability, 4 × 10^6 promastigotes/mL were incubated in the presence of a series of 11 points (0.1% DMSO) for 48 h at 28 °C to a final volume of 200 μL in a 96-well microplate, with each condition tested in technical replicates (≥2 wells per condition). Next, 20 μL of resazurin solution (0.39 mM) was added to each well and incubated for 4 h, and then fluorescence was recorded (570 nmex/595 nmem) on a microplate reader SpectraMax M5 (Molecular Devices, Sunnyvale, CA). The IC50 values were determined in three independent experiments by fitting concentration–response curves using nonlinear regression with a four-parameter logistic (4PL) model in GraphPad Prism v10.

[4] = system: intracellular L. infantum amastigotes; assay: Intracellular assay in infected THP-1-derived macrophages; assay type: cell-based, Leishmania infantum; conditions: for IC50: 48 h; for Selectivity index Intracellular: SI = CC50/IC50
Description: as §1
THP-1 cells differentiated in 96-well culture plates were infected with promastigotes in the stationary phase at a ratio of 30 parasites: 1 cell for 4 h at 37 °C in a final volume of 100 μL. The noninternalized parasites were then removed by washing with RPMI-1640 medium. The compounds were diluted at concentrations of 200–0.7 μM in 100 μL of culture medium per well for serial dilution. Subsequently, 100 μL of the diluted compounds was added to the infected THP-1 cells and incubated for 48 h, with each condition tested in technical replicates (≥2 wells per condition). The number of intracellular parasites per 100 macrophages was counted using light microscopy. The infection rate was determined in relation to the mean of the control wells. The IC50 values were determined independently in three separate experiments by fitting concentration–response curves to a 4PL model in GraphPad Prism v10.

[5] = Cytotoxicity assay (resazurin); assay type: cell-based; conditions: human, THP-1 cells, pH 7.4
Description: as §1
THP-1 cells were cultured in 96-well plates at a density of 1 × 10^4 cells per well in 100 μL of RPMI 1640 medium supplemented with 10% heat-inactivated fetal bovine serum (FBS) and 25 mM HEPES (pH 7.4). Cultures were maintained at 37 °C in a humidified atmosphere containing 5% CO2. After 24 h of incubation, the test compounds were prepared in serial dilutions in complete medium, starting at a concentration of 200 μM. Subsequently, 100 μL of each diluted compound solution was added to the corresponding wells containing the cells, with each concentration tested in duplicate wells. Following a 72 h incubation period, resazurin solution (Sigma) was added to each well at a final concentration of 20 μM, and plates were incubated for an additional 4 h under the same conditions. Fluorescence was measured using a SpectraMax M5 microplate reader (Molecular Devices, Sunnyvale, CA, USA) with an excitation wavelength of 570 nm and an emission wavelength of 595 nm.

[6] = Experimental determination of distribution coefficient (eLogD), chromatographic; assay type: physicochemical; conditions: Supelco Ascentis Express RP Amide HPLC column; pH 7.4, chromatographic retention method
Description: (§2) ADME profiling was conducted using liquid chromatography coupled with tandem mass spectrometry (LC–MS/MS).
The eLogD was carried out using a chromatographic method based on the analyte retention times within a stationary phase. Separation was performed on a Supelco Ascentis Express RP Amide high-performance liquid chromatography (HPLC) column (5 cm × 2.1 mm, 2.7 μm particle size), utilizing a binary mobile phase system composed of 5% methanol in 10 mM ammonium acetate buffer at pH 7.4 (designated as solvent A), and pure methanol (solvent B). […] The injection volume for each sample was 5 μL. Test compounds were diluted to a concentration of 1.0 mg/mL in a 1:1 mixture of mobile phases A and B, containing an internal standard at 200 nM. Final DMSO concentration was kept below 2%. […] A calibration curve was generated by plotting the retention times of these standards against their corresponding eLogD values. The linear regression equation (y = mx + b) obtained from this curve was then used to calculate the eLogD of each test compound.

[7] = Parallel artificial membrane permeability assay (PAMPA); assay type: in vitro ADME; conditions: donor pH 6.5, acceptor pH 7.4, 5 h, 37 °C; for Papp at 5 h, 10 μM: PAMPA, read-out: PAMPA Pe
Description: as §2
Each well is divided into two chambers, donor and acceptor, separated by a triple-layer phospholipid membrane constructed on a porous filter. Solutions of the compounds are prepared by diluting their respective stock solutions (10 mM in DMSO) in phosphate-buffered saline (PBS) at pH 6.5, yielding a final concentration of 10 μM (<1% DMSO, v/v). The solutions are then added to the donor portion of the plate (300 μL/well) in triplicate, while the acceptor portion received only PBS pH 7.4 (200 μL/well). The donor and acceptor portions are subsequently assembled, and the system is incubated for 5 h at 37 °C and 100 rpm. […] After the incubation period, samples are collected from the donor (10 μL) and acceptor (80 μL) wells and added to the analysis plate containing stop solution (300 μL) and PBS buffer pH 6.5 (60 μL). Final compound concentrations in the donor, acceptor, and Tzero wells are quantified by LC-MS/MS. The chromatogram for analysis was achieved on Supelco Ascentis express C18 column (3 cm × 2.1 mm, 5 μM). The mobile phases consisted of water +0.1% formic acid (A) and acetonitrile +0.1% formic acid (B). […] The results were used to calculate an effective permeability (Pe) value. All PAMPA assay was performed in triplicates.

[8] = Mouse liver microsomal stability assay; assay type: in vitro ADME; conditions: CD1, mouse, mouse liver microsomes, pH 7.4, 0.25 mg/mL protein; for microsomal CLint at 0.5 μM: read-out: MLM CLint; for half-life at 0.5 μM: read-out: MLM T 1/2
Description: as §2
Compounds were diluted to a final concentration of 0.5 μM and incubated with microsomal protein at 0.25 mg/mL in phosphate-buffered saline (PBS) at pH 7.4. The DMSO content in the incubation mixture was maintained below 1%. The metabolic reaction was initiated by introducing NADPH as a cofactor at a concentration of […]. Aliquots were taken at defined time intervals: 0 (immediately after NADPH addition), 5, 10, 20, 30, and 60 min. Reactions were halted by the addition of a quenching solvent consisting of a 1:1 mixture of acetonitrile and methanol containing an internal standard at 50 nM. Following quenching, samples were centrifuged at 3500 rpm for 30 min to pellet the precipitated microsomal proteins. The resulting supernatants were analyzed via LC–MS/MS. Quantification was performed based on the peak area ratio (PAR) of the analyte to internal standard, with the signal at time zero defined as 100%. The percentage of parent compound remaining at each time point was calculated accordingly. Using the plot of % remaining versus incubation time, the degradation rate constant (k) was determined via nonlinear regression. […] Chromatographic analysis was carried out using a Supelco Ascentis Express C18 column (3 cm × 2.1 mm, 5 μm particle size). The mobile phases were composed of water with 0.1% formic acid (A) and acetonitrile with 0.1% formic acid (B). […] All metabolic stability assays were conducted in triplicate.

[9] = Leishmania infantum, Macrophage, THP-1-derived macrophages infected with L. infantum, read-out: L. infantum IC50 Intracellular
[10] = Leishmania infantum, Macrophage, read-out: L. infantum IC50 Intracellular, THP-1-derived macrophages infected with L. infantum, 48 h
[11] = THP-1-derived macrophages infected with L. infantum, read-out: L. infantum IC50 Intracellular

Row | Structure (SMILES) | IC50 ([3]; resazurin) [µM] | Selectivity index Promastigotes [3] | Selectivity index Intracellular [4] | CC50 at 72 h [5] [µM] | further results
1 | C[C@@H]1[C@H](O)[C@@H](C)/C=C/C=C/C=C/C=C/C=C/C=C/C=C/[C@H](O[C@@H]2O[C@H](C)[C@@H](O)[C@H](N)[C@@H]2O)C[C@@H]2O[C@](O)(C[C@@H](O)C[C@@H](O)[C@H](O)CC[C@@H](O)C[C@@H](O)CC(=O)O[C@H]1C)C[C@H](O)[C@H]2C(=O)O [Amphotericin B] |  |  |  |  | SI [1]: 8.6; IC50 [1]: 140 nM; CC50 [2]: 1.2 µM
2 | Cc1ccccc1CN1CCC(CN(Cc2cccnc2)Cc2cc(CC(C)C)[nH]n2)CC1 [LC-58] | 7.85 ± 0.64 | 4.45 | 4.48 | 35 ± 5.2 | IC50 [4, 9]: 7.81 ± 4.13 µM
3 | CCc1nc(C)c(C(=O)NCC(c2cccnc2)N2CCCCC2)s1 (centres unmarked) [LC-59] | > 20 |  |  |  | 
4 | Cc1cc(F)ccc1N1CCC(NC(Cn2ccnc2)c2ccccc2)CC1 (centres unmarked) [LC-60] | 0.43 ± 0.05 |  |  | 40.8 ± 28.2 | chromatographic logD [6]: 4.45; Papp at 5 h, 10 μM [7]: 6.36 ×10⁻⁶ cm/s; microsomal CLint at 0.5 μM [8]: 120 µL/min/mg; half-life at 0.5 μM [8]: 23.2 min
5 | CCCCC(NC1CCN(c2ccccc2F)CC1)c1cccnc1 (centres unmarked) [LC-61] | 0.037 ± 0.002 |  |  | 157 ± 20.7 | chromatographic logD [6]: 4.07; Papp at 5 h, 10 μM [7]: 4.86 ×10⁻⁶ cm/s; PAMPA Pe [7]: 4.86 10^–6 cm/s
6 | Fc1ccc(N2CCC(NCC(c3cccnc3)N3CCCCC3)CC2)cc1F (centres unmarked) [LC-62] | 9.62 ± 0.98 | >10.4 | >24.7 | > 100 | 
7 | Fc1cccc(CN(Cc2cccnc2)CC2CCCN(C3CCCCC3)C2)c1 (centres unmarked) [LC-63] |  | 7.26 |  | 32.9 ± 5.22 | IC50 [3]: 4.53 ± 0.8 µM; IC50 [4, 10]: 11.5 ± 24 µM
8 | Cc1ccccc1CN1CCC(CN(Cc2cccnc2)Cc2nc(C(C)C)cs2)CC1 [LC-64] | 3.95 ± 0.42 | 7.03 | 4.13 | 27.8 ± 3.59 | IC50 [4, 9]: 6.72 ± 5.79 µM
9 | O=C(C(c1cccnc1)N1CCOCC1)N1CCCN(Cc2ccc(F)cc2)CC1 (centres unmarked) [LC-65] |  |  |  | > 245 | IC50 [3]: 3.59 ± 0.53 µM; IC50 [4, 10]: > 55.5 µM
10 | O=C(Cc1ccccc1)NC(c1ccc(Cl)cc1)c1cccnc1 (centres unmarked) [LC-66] | 3.18 ± 0.72 | >31.4 | >2.46 | > 100 | IC50 [4, 9]: 40.5 ± 58.7 µM
11 | O=C(NCCc1cnc[nH]1)c1cc(-c2ccccc2)nc2ccccc12 [LC-67] | > 20 |  |  |  | 
12 | Cc1ccc(C)c(-c2nc(NC(=O)c3ccncc3)sc2C)c1 [LC-68] | > 20 |  |  |  | 
13 | Cc1ccc(C)c(-c2nc(NC(=O)C3CC3)sc2C)c1 [LC-69] | > 20 |  |  |  | 
14 | CC(C)N1CCC(C(=O)NC(c2ccc(Cl)cc2)c2cccnc2)CC1 (centres unmarked) [LC-70] | > 20 |  |  |  | 
15 | O=C1OCc2ccc(NC(=O)N3CCCCC3c3cccnc3)cc21 (centres unmarked) [LC-71] | 11.7 ± 2.86 | >17.1 | >20.5 | > 200 | IC50 [4, 10]: < 10 µM; IC50 [4, 11]: 9.76 ± 10.2 µM
16 | Cn1nnc2cc(NC(=O)N3CCCCC3c3cccnc3)ccc21 (centres unmarked) [LC-72] | > 20 |  |  |  | 
17 | CC(C)n1cc(C(=O)NC(c2ccc(Cl)cc2)c2cccnc2)cn1 (centres unmarked) [LC-73] | > 20 |  |  |  | 
18 | O=C(Nc1ccc(Cl)cn1)N1CCCCC1c1cccnc1 (centres unmarked) [LC-74] | 0.49 ± 0.07 |  |  | > 200 | chromatographic logD [6]: 2.39; Papp at 5 h, 10 μM [7]: 10.8 ×10⁻⁶ cm/s; microsomal CLint at 0.5 μM [8]: 27.2 µL/min/mg; half-life at 0.5 μM [8]: 102 min
19 | OC(COc1ccc(Br)cc1)Cn1ccnc1 (centres unmarked) [LC-75] | 10.5 ± 1.26 | >9.52 | >14.8 | > 100 | IC50 [4, 10]: < 10 µM; IC50 [4, 11]: 6.73 ± 3.27 µM
20 | CCCCCCCCCCCCCCCCOP(=O)([O-])OCC[N+](C)(C)C [miltefosine] |  |  |  |  | SI [1]: 138; IC50 [1]: 370 nM; CC50 [2]: 51.1 µM
